The structures appear in SMILES notation. Bounds are passed on as bounds.

In patent US20240343733A1, “COMPOUNDS FOR TARGETING DEGRADATION OF IRAK4 PROTEINS” (BIOGEN MA INC., priority 2021, published 2024) one finds DC50 data, which are given here for 19 compounds.

The assay concerns the target T1, IRAK4 (Homo sapiens, UniProt Q9NWZ3).
T1 construct: 293Tcells expressing HiBiT-tagged IRAK4 were then added into 384-well plates
T1 sequence (Q9NWZ3 1-460): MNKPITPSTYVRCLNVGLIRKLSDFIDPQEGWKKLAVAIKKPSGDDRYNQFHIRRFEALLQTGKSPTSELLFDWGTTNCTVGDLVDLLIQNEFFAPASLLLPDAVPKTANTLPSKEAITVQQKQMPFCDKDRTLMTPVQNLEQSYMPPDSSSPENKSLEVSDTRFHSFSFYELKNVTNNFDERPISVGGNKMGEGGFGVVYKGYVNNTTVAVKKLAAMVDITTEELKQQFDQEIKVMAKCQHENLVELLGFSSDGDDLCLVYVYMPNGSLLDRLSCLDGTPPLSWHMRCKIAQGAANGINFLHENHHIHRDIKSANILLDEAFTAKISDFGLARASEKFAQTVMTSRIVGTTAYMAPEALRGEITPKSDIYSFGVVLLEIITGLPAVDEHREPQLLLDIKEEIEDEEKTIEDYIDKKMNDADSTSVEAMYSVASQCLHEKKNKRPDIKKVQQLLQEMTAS
As to the kind of experiment: IRAK4 Degradation Assay, HiBiT Method. The assay is classed as cell-based. Particulars: 293T cells expressing HiBiT-tagged IRAK4, 6 hours. The method, boiled down:
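Luminescent read-out with Nano-Glo HiBiT lytic reagent after 6 h compound exposure at 37 °C. Cells were HiBiT-IRAK4 knock-in 293T (C-terminal tag), 10,000 per well. Compounds ran as 11-point half-log dilutions from […] highest dose, duplicate wells; DMSO served as negative control.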
(In general: HiBiT is a short tag that completes a luciferase, so light tracks the accessible tagged protein.)
As usually defined, the DC50 is the midpoint of the concentration-degradation curve. `CC(C)Oc1cc2nc(C3CCN(CC(=O)N4CCC(c5ccc(NC6CCC(=O)NC6=O)cc5)CC4)CC3)cn2cc1C(=O)Nc1ccc(F)cc1F` (stereo not shown) [Example 94, N-(2,4-difluorophenyl)-2-[1-[2-[4-[4-[(2,6-dioxo-3-piperidyl)amino]phenyl]-1-piperidyl]-2-oxo-ethyl]-4-piperidyl]-7-isopropoxy-imidazo[1,2-a]pyridine-6-carboxamide] showed a DC50 of 100 to 500 nM.
To `CC(C)Oc1cc2nc(C3(C)CCN(CC(=O)N4CCC(c5ccc(NC6CCC(=O)NC6=O)cc5)CC4)CC3)cn2cc1C(=O)Nc1cccc(C(F)(F)F)n1` (stereo not shown) [Example 95, 2-[1-[2-[4-[4-[(2,6-dioxo-3-piperidyl)amino]phenyl]-1-piperidyl]-2-oxo-ethyl]-4-methyl-4-piperidyl]-7-isopropoxy-N-[6-(trifluoromethyl)-2-pyridyl]imidazo[1,2-a]pyridine-6-carboxamide] belongs 100 to 500 nM; to `CC(C)Oc1cc2nc(C3CCN(CC(=O)N4CCC(c5cc(F)c(C6CCC(=O)NC6=O)cc5F)CC4)CC3)cn2cc1C(=O)Nc1cccc(C(F)F)n1` (stereo not shown) [Example 97, N-[6-(difluoromethyl)-2-pyridyl]-2-[1-[2-[4-[4-(2,6-dioxo-3-piperidyl)-2,5-difluoro-phenyl]-1-piperidyl]-2-oxo-ethyl]-4-piperidyl]-7-isopropoxy-imidazo[1,2-a]pyridine-6-carboxamide], 10 to 100 nM.
To `CC(C)Oc1cc2nc(C3CCN(CC(=O)N4CCC(c5ccc(C6CCC(=O)NC6=O)cc5)CC4)CC3)cn2cc1C(=O)Nc1cccc(C(F)F)n1` (stereo not shown) [Example 99, N-[6-(difluoromethyl)-2-pyridyl]-2-[1-[2-[4-[4-(2,6-dioxo-3-piperidyl)phenyl]-1-piperidyl]-2-oxo-ethyl]-4-piperidyl]-7-isopropoxy-imidazo[1,2-a]pyridine-6-carboxamide] belongs 10 to 100 nM; to `CC(C)Oc1cc2nc(C3CCN(CC(=O)N4CCC(c5cc(F)c(C6CCC(=O)NC6=O)cc5F)CC4)CC3)cn2cc1C(=O)Nc1cnn2cccnc12` (stereo not shown) [Example 100, 2-[1-[2-[4-[4-(2,6-dioxo-3-piperidyl)-2,5-difluoro-phenyl]-1-piperidyl]-2-oxo-ethyl]-4-piperidyl]-7-isopropoxy-N-pyrazolo[1,5-a]pyrimidin-3-yl-imidazo[1,2-a]pyridine-6-carboxamide], 10 to 100 nM.
Consider `CC(C)Oc1cc2nc(C3CCN(CC(=O)N4CCC(c5ccc(C6(F)CCC(=O)NC6=O)cc5)CC4)CC3)cn2cc1C(=O)Nc1cccc(C(F)F)n1` (stereo not shown) [Example 101, N-[6-(difluoromethyl)-2-pyridyl]-2-[1-[2-[4-[4-(3-fluoro-2,6-dioxo-3-piperidyl)phenyl]-1-piperidyl]-2-oxo-ethyl]-4-piperidyl]-7-isopropoxy-imidazo[1,2-a]pyridine-6-carboxamide], for which the DC50 lay within 10 to 100 nM.
In the case of `CC(C)Oc1cc2nc(C3CCN(CC(=O)N4CCC(c5ccc(C6(F)CCC(=O)NC6=O)cc5)CC4)CC3)cn2cc1C(=O)Nc1ccn(C)n1` (stereo not shown) [Example 102, 2-[1-[2-[4-[4-(3-fluoro-2,6-dioxo-3-piperidyl)phenyl]-1-piperidyl]-2-oxo-ethyl]-4-piperidyl]-7-isopropoxy-N-(1-methylpyrazol-3-yl)imidazo[1,2-a]pyridine-6-carboxamide], the DC50 lay in the range of 10 to 100 nM.
For `CC(C)Oc1cc2nc(C3CCN(CC(=O)N4CCC(c5ccc(NC6CCC(=O)NC6=O)cc5)CC4)CC3)cn2cc1C(=O)Nc1cccc(C(F)(F)F)n1` (stereo not shown) [Example 103, 2-(1-(2-(4-(4-((2,6-dioxopiperidin-3-yl)amino)phenyl)piperidin-1-yl)-2-oxoethyl)piperidin-4-yl)-7-isopropoxy-N-(6-(trifluoromethyl)pyridin-2-yl)imidazo[1,2-a]pyridine-6-carboxamide] the value was 10 to 100 nM.
Compound `CC(C)Oc1cc2nc(C3CCN(CC(=O)N4CCC(c5ccc(NC6CCC(=O)NC6=O)cc5)CC4)CC3)cn2cc1C(=O)Nc1cccc(C(F)(F)F)c1` (stereo not shown) [Example 106, 2-[1-[2-[4-[4-[(2,6-dioxo-3-piperidyl)amino]phenyl]-1-piperidyl]-2-oxo-ethyl]-4-piperidyl]-7-isopropoxy-N-[3-(trifluoromethyl)phenyl]imidazo[1,2-a]pyridine-6-carboxamide] had a half-maximal degradation concentration (DC50) of 100 to 500 nM.
`CC(C)Oc1cc2nc(C3CCN(CC(=O)N4CCC(c5ccc(NC6CCC(=O)NC6=O)cc5)CC4)CC3)cn2cc1C(=O)Nc1ccccn1` (stereo not shown) [Example 109, 2-[1-[2-[4-[4-[(2,6-dioxo-3-piperidyl)amino]phenyl]-1-piperidyl]-2-oxo-ethyl]-4-piperidyl]-7-isopropoxy-N-(2-pyridyl)imidazo[1,2-a]pyridine-6-carboxamide] came in with a half-maximal degradation concentration (DC50) of 10 to 100 nM.
To `CC(C)Oc1cc2nc(C3CCN(CC(=O)N4CC5(C4)CN(c4ccc(C6CCC(=O)NC6=O)cc4)C5)CC3)cn2cc1C(=O)Nc1cccc(C(F)F)n1` (stereo not shown) [Example 110, N-[6-(difluoromethyl)-2-pyridyl]-2-[1-[2-[6-[4-(2,6-dioxo-3-piperidyl)phenyl]-2,6-diazaspiro[3.3]heptan-2-yl]-2-oxo-ethyl]-4-piperidyl]-7-isopropoxy-imidazo[1,2-a]pyridine-6-carboxamide] belongs 10 to 100 nM; to `CC(C)Oc1cc2nc(C3CCN(CC(F)=C4CCN(c5ccc(NC6CCC(=O)NC6=O)cc5)CC4)CC3)cn2cc1C(=O)Nc1cccc(C(F)F)n1` (stereo not shown) [Example 111, N-(6-(difluoromethyl)pyridin-2-yl)-2-(1-(2-(1-(4-((2,6-dioxopiperidin-3-yl)amino)phenyl)piperidin-4-ylidene)-2-fluoroethyl)piperidin-4-yl)-7-isopropoxyimidazo[1,2-a]pyridine-6-carboxamide], 10 to 100 nM.
Take `CC(C)Oc1cc2nc(C3CCN(CC(F)=C4CCN(c5ncc(C6CCC(=O)NC6=O)cc5F)CC4)CC3)cn2cc1C(=O)Nc1cccc(C(F)F)n1` (stereo not shown) [Example 112, N-[6-(difluoromethyl)-2-pyridyl]-2-[1-[2-[1-[5-(2,6-dioxo-3-piperidyl)-3-fluoro-2-pyridyl]-4-piperidylidene]-2-fluoro-ethyl]-4-piperidyl]-7-isopropoxy-imidazo[1,2-a]pyridine-6-carboxamide]: the DC50 fell in the range of 10 to 100 nM.
To `CC(C)Oc1cc2nn([C@H]3CC[C@H](CN4CC[C@H](c5ccc6c(N7CCC(=O)NC7=O)nn(C)c6c5)[C@H](O)C4)CC3)cc2cc1C(=O)Nc1cccn(C2C[C@H]2F)c1=O` (stereo partly drawn) [Example 116, 2-((1S,4S)-4-(((3S,4R)-4-(3-(2,4-dioxotetrahydropyrimidin-1(2H)-yl)-1-methyl-1H-indazol-6-yl)-3-hydroxypiperidin-1-yl)methyl)cyclohexyl)-N-(1-((1S,2R)-2-fluorocyclopropyl)-2-oxo-1,2-dihydropyridin-3-yl)-6-isopropoxy-2H-indazole-5-carboxamide] belongs below 10 nM; to `CC(C)Oc1cc2nn([C@H]3CC[C@H](CN4CC5(CCN(c6ncc(C7CCC(=O)NC7=O)cc6F)CC5)C4)CC3)cc2cc1C(=O)Nc1cnn2cccnc12` (stereo partly shown) [Example 117, 2-((1r,4r)-4-((7-(5-(2,6-dioxopiperidin-3-yl)-3-fluoropyridin-2-yl)-2,7-diazaspiro[3.5]nonan-2-yl)methyl)cyclohexyl)-6-isopropoxy-N-(pyrazolo[1,5-a]pyrimidin-3-yl)-2H-indazole-5-carboxamide], below 10 nM.
For `CC(C)Oc1cc2nn([C@H]3CC[C@H](CN4CCCC(c5ccc(OC6CCC(=O)NC6=O)cc5)C4)CC3)cc2cc1C(=O)Nc1cccn(C2CC2)c1=O` (stereo partly shown) [Example 118, N-(1-cyclopropyl-2-oxo-1,2-dihydropyridin-3-yl)-2-((1r,4r)-4-((3-(4-((2,6-dioxopiperidin-3-yl)oxy)phenyl)piperidin-1-yl)methyl)cyclohexyl)-6-isopropoxy-2H-indazole-5-carboxamide] the value was 10 to 100 nM.
`CC(C)Oc1cc2nn([C@H]3CC[C@H](CN4CCN(c5ncc(C6CCC(=O)NC6=O)cc5F)CC(O)C4)CC3)cc2cc1C(=O)Nc1cccn([C@H]2C[C@H]2F)c1=O` (stereo partly drawn) [Example 119, 2-((1r,4S)-4-((4-(5-(2,6-dioxopiperidin-3-yl)-3-fluoropyridin-2-yl)-6-hydroxy-1,4-diazepan-1-yl)methyl)cyclohexyl)-N-(1-((1S,2R)-2-fluorocyclopropyl)-2-oxo-1,2-dihydropyridin-3-yl)-6-isopropoxy-2H-indazole-5-carboxamide] had a DC50 below 10 nM.
For `CC(C)Oc1cc2nn([C@H]3CC[C@H](CN4CC5(CCN(c6ncc(C7CCC(=O)NC7=O)cc6F)CC5)C4)CC3)cc2cc1C(=O)Nc1cccn(C2CC2)c1=O` (stereo partly shown) [Example 124, N-(1-cyclopropyl-2-oxo-1,2-dihydropyridin-3-yl)-2-((r,4r)-4-((7-(5-(2,6-dioxopiperidin-3-yl)-3-fluoropyridin-2-yl)-2,7-diazaspiro[3.5]nonan-2-yl)methyl)cyclohexyl)-6-isopropoxy-2H-indazole-5-carboxamide], the DC50 is below 10 nM.
For `CC(C)Oc1cc2nn([C@H]3CC[C@H](CN4CC5(C4)CN(c4ncc(C6CCC(=O)NC6=O)cc4F)C5)CC3)cc2cc1C(=O)Nc1cccn([C@H]2C[C@H]2F)c1=O` (stereo partly drawn) [Example 126, 2-((1r,4S)-4-((6-(5-(2,6-dioxopiperidin-3-yl)-3-fluoropyridin-2-yl)-2,6-diazaspiro[3.3]heptan-2-yl)methyl)cyclohexyl)-N-(1-((1S,2R)-2-fluorocyclopropyl)-2-oxo-1,2-dihydropyridin-3-yl)-6-isopropoxy-2H-indazole-5-carboxamide] the value was below 10 nM.
